From patent publication US20080075688A1, “Use of non-digestible polymeric foams to sequester ingested materials thereby inhibiting their absorption by the body” (The Procter & Gamble Company, priority 2003, published 2008) come the findings set out here.

Structures are written as SMILES.

For data set [1], the system named is rats. In words: Fat excretion in rats on a high-fat diet (30% of calories as corn oil) for 9 days with XENICAL, Example 4. The format is in vivo, rat. The following applies: 400 ppm XENICAL without or with 0.5% HIPE foam in diet. On the procedure: (§1) Three groups of rats were matched by weight and receive a high-fat diet (30% of calories as corn oil) for 9 days. One of the groups also received 400 ppm XENICAL® as part of the diet. The third group received both 400 ppm XENICAL® and 0.5% ground particulate HIPE foam from Example 1, Sample 1 as part of the diet. Total diet intake was measured throughout the study, and fecal output was measured in tail cups fitted to the animals during the last two days of the study. The pooled two-day collection of feces from each animal was analyzed for fat content according to AOAC method 954.04, published by AOAC International, Gaithersburg, Md.

Data set [2] relates to rats. As to the kind of experiment: Observer rating of oil on the fur of rats, Example 4. The format is in vivo, rat. On the procedure:
as §1, with “Md. On days 5 and 7 of the study, the appearance of each animal was judged by two observers unaware of the dietary treatment of the animals. These observers assigned numerical values that increased with the amount of oil seen on the fur. A value of 1 was used to describe animals with no oil apparent on their fur. A value of 5 was used to describe animals with more than 90% of their fur coated with oil. Values of 2, 3, or 4, as appropriate, were assigned to animals with intermediate amounts of oil on the fur.” for “Md.”

On to `CCCCCCCCCCC[C@@H](C[C@@H]1OC(=O)[C@H]1CCCCCC)OC(=O)[C@H](CC(C)C)NC=O` [XENICAL ®, tetrahydrolipstatin], for which the “Fat excretion versus the control group” value in the data set with rats [1] is on record as “significantly more fat than the control group”. In the data set on rats [1] (corn oil diet 9 days, feces of last two days, control 0.16), the “Mean Total 48 hour Lipid Excretion” value was 2.6 g. Moreover, the “Excreted Fat (as % Ingested Fat)” value with rats [1] (corn oil diet 9 days, feces of last two days, control 3.9) was found to be 59.1 % Ingested Fat. In the data set with rats [2] (400 ppm XENICAL only versus control and XENICAL + foam), the “Oil on fur rating compared with the other groups” value is listed as “significantly different relative to the other two groups”. Further, the “Average Rating (oil on fur)” value in the data set on rats [2] (days 5 and 7, two blinded observers, scale 1 (no oil apparent on fur) to 5 (more than 90% of fur coated), control 1.03) was 4.41.
